Data taken from patent publication US20090263354A1, “Compositions and siRNAs for inhibiting C/EBPbeta” (Yeda Research and Development Co., Ltd., priority 2006, published 2009).

Columns and labels:
p53 = assay: Induction of cellular p53 by cell death inducers, immunoblotting; assay type: cell-based, human; conditions: WISH cells; 24 h (TNFα plus IFN-γ 48 h)
Experimental: The following experiment was carried out in order to confirm that the protective effect of C/EBPβ from cell death inducers is independent of the transfection process. Thus, B16 mouse melanoma cells, stably transfected with an inducible C/EBPβ expression vector (Clone F-10.9) were obtained from M. Revel and J. Chebath, Weizmann Institute of Science, Israel. Induction of C/EBPβ expression was triggered by addition of the antibiotic doxycycline (1 μg/ml, 24 h, Sigma) to the culture medium and was evaluated by both RT-PCR and immunoblotting. RT-PCR was performed as follows: F-10.9 cells (10^6) were harvested and total RNA was extracted by using the Rneasy® kit- from QIAGEN. cDNA was prepared by using random hexamers (Invitrogen) and M-MLV Reverse Transcriptase (Promega) according to the manufacturer's instructions. PCR was performed with the following primers: mouse C/EBPβ, 5′-[…] and 5′-[…]. Amplifications were done by initial denaturation (95° C., 4 min), 27 cycles of denaturation (95° C., 80 s), annealing (57° C., 60 s) and extension (72° C., 80 s), and final extension (72° C., 5 min). The resulting PCR products were resolved by agarose (1%) gel electrophoresis. […] For immunoblotting, cells were washed three times with ice-cold PBS and immediately frozen in liquid nitrogen. Cell pellets were re-suspended in four packed cell volumes of cytoplasmic buffer (10 mM Hepes, pH 7.9, 10 mM NaCl, 0.2 mM EDTA, 5% glycerol, 1.5 mM MgCl2, 1 mM DTT, 0.5 mM PMSF, 50 mM NaF, 0.1 mM Na3VO4, 2 mM EGTA, 10 mM Na2MoO4, 2 μg/ml each of leupeptin, pepstatin, and aprotinin). The suspension was freeze/thawn twice, incubated on ice for 20 min and then centrifuged (3,000×g, 10 min, 4° C.). The supernatant containing the proteins was collected and protein concentration was determined by a BCA Protein assay kit (Pierce), using BSA as a standard. Protein extracts (10 μg) were boiled in SDS/PAGE sample buffer containing 25 mM DTT and the supernatant was resolved by SDS/PAGE (10% acrylamide). The gel was then blotted onto a nitrocellulose membrane and proteins were detected with the indicated antibodies. Immune complexes were identified with a Super Signal detection kit (Pierce.).
It was recently reported that C/EBPβ binds to p53 and inhibits its activity, part of which could be induction of apoptosis. We carried out several experiments to find out if the protective effect of C/EBPβ over-expression against apoptosis induced by cell death inducers involves inhibition of p53. Initially, we determined which of the cell death inducers used for induction of apoptosis elevates the level of cellular p53. For this purpose, WISH cells were treated with; etoposide (50 μM for 24 h); MG262 (0.1 μM, for 24 h); TNFα (100 ng/ml) plus IFN-γ (1000 IU/ml) for 48 h; doxorubicin (1.8 μM, for 24 h); vincristine (0.1 μg/ml, for 24 h); FasL (60 ng/ml, 24 h); tunicamycin (1 μg/ml, for 24 h) or ALLN (26 μM, for 24 h), and extracts of these cells were subjected to immunoblotting with anti p53 (mab dd1+1801, 1:40 from M. Oren, WIS) as described in Example 6.

WISH cells = assay: Protection of WISH cells from cell death by pre-incubation with IGF-1 or IL-6; assay type: cell-based, human
Experimental: WISH cells were pre-incubated with IGF-1 (200 ng/ml) for the indicated times. Doxorubicin (2 μM, for 16 h) was then added. […] The same results were obtained when apoptosis was induced by MG262, TNF-α plus IFN-γ, and tunicamycin (data not shown).
WISH Cells (30,000 cells/well) were pre incubated with 6.25, 12.5, 25, 50, 100, 200, 300, 400, 500, or 1000 IU/ml of IL-6 for 6 h and then 26 μM ALLN was added for 48 h.

CC(C)C[C@H](NC(=O)[C@H](CC(C)C)NC(=O)[C@H](CC(C)C)NC(=O)OCc1ccccc1)B(O)O [MG262]
induction of p53 (immunoblotting with anti p53) (p53): extensive induction of p53

COc1cccc2c1C(=O)c1c(O)c3c(c(O)c1C2=O)C[C@@](O)(C(=O)CO)C[C@@H]3O[C@H]1C[C@H](N)[C@H](O)[C@H](C)O1 [doxorubicin]
induction of p53 (immunoblotting with anti p53) (p53): extensive induction of p53

COc1cc([C@@H]2c3cc4c(cc3[C@@H](O[C@@H]3O[C@@H]5CO[C@@H](C)O[C@H]5[C@H](O)[C@H]3O)[C@H]3COC(=O)[C@H]23)OCO4)cc(OC)c1O [etoposide]
induction of p53 (immunoblotting with anti p53) (p53): did not induce p53

CC[C@]1(O)C[C@H]2CN(CCc3c([nH]c4ccccc34)[C@@](C(=O)OC)(c3cc4c(cc3OC)N(C=O)[C@H]3[C@@](O)(C(=O)OC)[C@H](OC(C)=O)[C@]5(CC)C=CCN6CC[C@]43[C@@H]65)C2)C1 [vincristine]
induction of p53 (immunoblotting with anti p53) (p53): did not induce p53

IGF-1: growth factor IGF-1 added to the culture medium
protection of WISH cells from doxorubicin (WISH cells; IGF-1 200 ng/ml pre-incubation, doxorubicin 2 μM, 16 h): did not protect | protection of WISH cells from other apoptosis inducers (WISH cells; IGF-1, apoptosis induced by MG262, TNF-α plus IFN-γ, and tunicamycin, data not shown): same results

IL-6: cytokine IL-6
protection from apoptosis induced by ALLN (WISH cells; IL-6 6.25-1000 IU/ml, 6 h before ALLN 26 μM, 48 h): did not protect

tunicamycin
induction of p53 (immunoblotting with anti p53) (p53): did not induce p53

B1: FasL: Fas ligand, cytotoxic cytokine (protein, UniProt P48023 130-281, looked up)
Tumor necrosis factor ligand …: QIGHPSPPPEKKELRKVAHLTGKSNSRSMPLEWEDTYGIVLLSGVKYKKGGLVINETGLYFVYSKVYFRGQSCNNLPLSHKVYMRNSKYPQDLVMMEGKMMSYCTTGQMWARSSYLGAVFNLTSADHLYVNVSELSLVNFEESQTFFGLYKL
induction of p53 (immunoblotting with anti p53) (p53): did not induce p53
